These results are taken from ChEMBL document CHEMBL5620400, “Design, synthesis, antiviral evaluation, and In silico studies of acrylamides targeting nsP2 from Chikungunya virus” (Eur J Med Chem, 2023).

pEC50, pIC50, pKd, pKi: −log10 of the molar value.

Series [1] concerns the target T1, Polyprotein P1234 (Chikungunya virus (strain S27-African prototype) (CHIKV), UniProt Q8JUX6). The experiment in a line: Inhibition of CHIKV nsP2 protease activity assessed as decrease in the fluorescence signal using peptide substrate measured for 20 mins by FRET analysis.
Series [2] deals with T1, Polyprotein P1234. The experiment in a line: Binding affinity to CHIKV nsP2 assessed as inhibition constant by measuring fluorescence by multimode microplate reader.
Series [3] has as its target T1, Polyprotein P1234. Kind of series: Binding affinity to CHIKV nsP2 assessed as equilibrium dissociation constant by isothermal titration calorimetry. A general note: ITC needs no label: the signal is the heat of the interaction.
Series [4] deals with Sindbis virus. Kind of series: Antiviral activity against SINV infected african green monkey Vero cells assessed as reduction of plaque formation at 100 uM measured after 48 hrs relative to control. Format: functional.
Series [5] concerns Sindbis virus. The experiment in a line: Antiviral activity against SINV infected african green monkey Vero cells assessed as reduction in viral titer measured after 24 hrs by plaque assay. Format: functional, organism-based.
Series [6] in a line: Cytotoxicity against african green monkey Vero cells assessed as cell viability measured after 48 hrs by MTT assay. The settings on record: chlorocebus sabaeus. Format: toxicity, cell-based.
In series [7] the test system is Chikungunya virus. The experiment in a line: Antiviral activity against CHIKV infected african green monkey Vero cells assessed as inhibition of virus induced cytopathic effect measured after 48 hrs. Format: functional, organism-based. (Protection from cytopathic effect is a common read-out in antiviral testing.)
The nature of series [8]: Selectivity index, ratio of CC50 for African green monkey Vero cells to EC50 for CHIKV. Format: toxicity. The settings on record: read-out: Selectivity Index.
In series [9] the test system is Chikungunya virus. Kind of series: Antiviral activity against CHIKV infected african green monkey Vero cells assessed as inhibition of virus induced cytopathic effect by measuring virus positive cells at 50 uM measured after 48 hrs by flow cytometry relative to control. Format: functional. Also noted: scale not given: the % may be the effect or the level left.
Series [10] is described as follows: Antiviral activity against […] infected african green monkey Vero cells assessed as reduction in viral RNA copies measured per uL at 50 uM measured after 24 hrs (reference value: 1.4 x […] vRNA copy numbers/uL). Format: functional.

T1 sequence (Q8JUX6 536-1333 limits assumed): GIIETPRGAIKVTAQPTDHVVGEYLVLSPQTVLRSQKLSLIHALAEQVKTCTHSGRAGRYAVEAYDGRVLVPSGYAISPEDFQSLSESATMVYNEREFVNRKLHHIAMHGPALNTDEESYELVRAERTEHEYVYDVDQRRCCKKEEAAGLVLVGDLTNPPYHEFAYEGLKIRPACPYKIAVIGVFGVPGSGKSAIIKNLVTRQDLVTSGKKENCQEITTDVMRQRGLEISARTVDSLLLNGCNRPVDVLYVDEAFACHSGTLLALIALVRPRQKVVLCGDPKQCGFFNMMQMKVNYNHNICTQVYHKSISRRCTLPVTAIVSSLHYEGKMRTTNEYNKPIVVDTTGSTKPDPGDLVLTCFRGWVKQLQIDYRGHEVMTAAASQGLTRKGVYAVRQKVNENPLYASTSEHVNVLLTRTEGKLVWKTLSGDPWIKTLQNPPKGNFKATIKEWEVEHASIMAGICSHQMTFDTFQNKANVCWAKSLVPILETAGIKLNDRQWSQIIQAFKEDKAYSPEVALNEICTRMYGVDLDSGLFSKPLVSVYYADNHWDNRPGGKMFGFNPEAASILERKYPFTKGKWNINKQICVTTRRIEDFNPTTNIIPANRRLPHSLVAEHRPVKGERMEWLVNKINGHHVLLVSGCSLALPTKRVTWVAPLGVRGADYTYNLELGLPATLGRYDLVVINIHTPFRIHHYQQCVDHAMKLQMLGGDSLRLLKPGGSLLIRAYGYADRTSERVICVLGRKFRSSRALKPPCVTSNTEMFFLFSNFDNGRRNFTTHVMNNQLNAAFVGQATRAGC

What is called pIC50 is −log10 of the IC50, conventionally taken in molar units. In general, pKi refers to −log10 of the Ki, conventionally taken in molar units. As usually defined, the pKd is −log10 of the Kd, conventionally taken in molar units. As a reminder, the pEC50 is −log10 of the EC50, conventionally taken in molar units. Broadly, the CC50 is the concentration giving 50% cytotoxicity. As to `O=C(/C=C/c1ccc(Cl)cc1Cl)Nc1ccccc1`, the negative logarithm of the IC50 (pIC50) at Polyprotein P1234 [1] is 4.70. In addition, the pKi at Polyprotein P1234 [2] was 4.03. In addition, the pKd on Polyprotein P1234 [3] is 3.80. In addition, the Imax in the series on Sindbis virus [4] was 88.77%. Besides, the pEC50 was above 5.51 with Sindbis virus [5] and 4.32 with Chikungunya virus [7]. For the same molecule, in [6], the CC50 at 48 h is above 200 µM. Further, in [8], the selectivity ratio is above 4.17.
Regarding `O=C(/C=C/c1ccc(Br)cc1)Nc1ccccc1`, the negative logarithm of the IC50 (pIC50) at Polyprotein P1234 [1] is 4.82. Moreover, the pKi on Polyprotein P1234 [2] is 3.74. The pKd on Polyprotein P1234 [3] was 3.66. In addition, the Imax in the series on Sindbis virus [4] is reported as above 79.9%. The pEC50 in the series with Sindbis virus [5] is 5.49.
Regarding `COc1ccccc1/C=C/C(=O)Nc1ccccc1`, the pIC50 at Polyprotein P1234 [1] is 6.02. On Polyprotein P1234 [2], the pKi was 5.64. Moreover, the pKd on Polyprotein P1234 [3] is 3.70. In addition, the Imax in the series with Sindbis virus [4] turned out to be 58%. In addition, the pEC50 was 4.14 in the series with Sindbis virus [5] and 4.59 in the series with Chikungunya virus [7]. In series [6], the CC50 at 48 h was above 200 µM. In addition, in series [8], the selectivity ratio was above 7.72.
In the case of `O=C(/C=C/c1ccc(C(F)(F)F)cc1)Nc1ccccc1`, the pIC50 on Polyprotein P1234 [1] is 4.90. Further, at Polyprotein P1234 [2], the negative logarithm of the Ki (pKi) was 4.31. Besides, the pKd at Polyprotein P1234 [3] was 3.90. Further, the Imax in the series with Sindbis virus [4] amounted to 95.76%. Also, the negative logarithm of the EC50 (pEC50) in the series with Sindbis virus [5] was 6.02; with Chikungunya virus [7], 5.28. In addition, the CC50 at 48 h in series [6] came to 165 µM. For the same molecule, the selectivity ratio in [8] came out at 31.8. The Activity with Chikungunya virus [9] was 35.8%; in series [10], 720000.
